According to US8895019B2, “Biofilm treatment” (Oral Health Australia Pty Ltd, priority 2007, dated 2014):
Converted amounts (≈) assume the structure as drawn. Read-outs that look alike come from different tables or passages of the source. Marks after values point to notes of the source that are not given here.

What was measured:
P. gingivalis W50 = test: Susceptibility of P. gingivalis to Frd inhibiting agents: growth in liquid culture, OD 620 nm over 50 h; assay type: cell-based, Porphyromonas gingivalis
Procedure: (§1) The effect of Frd inhibiting agents on P. gingivalis was carried out in liquid cultures. Briefly W50 was cultured in 200 mL BHI medium until OD of 0.6 (˜2.9×10^8 cfu/mL). The cells were then resuspended in fresh growth medium to a final concentration of 2.5×10^7 cfu/mL. Oxantel pamonate, morantel citrate and thiabendazole (Sigma) were dissolved in DMSO to achieve stock concentrations of 250 mM. 4 μL of the test solution was then mixed with 196 μL of cell suspension and transferred into 96 well flat bottom plates followed by incubation at 37° C. under anaerobic conditions and monitored hourly over a 50 h period by measuring the optical density of the culture at 620 nm using an iEMS microplate reader (Labsystems OY Research Technologies Division). Mean generation times of P. gingivalis in the presence of different inhibiting agents were calculated by […] where Nt and N0 are cells population at time t and time zero, respectively.

[1] = system: P. gingivalis ATCC 33277 biofilm; test: Flowcell biofilm culture and CLSM analysis (COMSTAT); assay type: cell-based, Porphyromonas gingivalis
Source text: The biofilm culture of P. gingivalis ATCC 33277 in flow cells was similar to that previously described with several modifications. A 3-channel flow cell system (Stovall Life Science, USA) was set up in an anaerobic chamber (MK3 Anaerobic workstation; Don Whitley Scientific Ltd.) and was modified with silicon pump tubing (Gilson, France) and stopcocks for inoculation, testing and staining of the bacterial biofilms. All parts were assembled and 0.5% sodium hypochlorite was pumped into the system and left overnight to sterilise the system. Sterile water (200 mL) was then used to flush the system before growth medium addition. The system was inoculated with 1 mL of an exponentially growing P. gingivalis diluted to 0.1 OD600. The system was incubated for 1 h prior to constant flow (0.2 mL/min) of 5× diluted BHI (Oxoid) supplemented with 0.1 g/L cysteine, 1 mg/L heamin and 1 mg/L vitamin K. […] The flow of medium was resumed for another 10 min to wash off any unbound cells due to testing. BacLight stain (Molecular Probes) was then used to stain the biofilm in situ (see below).
Confocal laser scanning microscopy (CLSM) of the bacterial biofilms was carried out on a Meta 510 Confocal Microscope with an inverted stage (Zeiss). Horizontal (xy) optodigital sections, each 2 μm thick over the entire thickness of the biofilm (z) were imaged using a 63× objective at 512×512 pixel (0.28 μm per pixel), with each frame at 143.86 μm (x)×143.86 μm (y). To determine reproducibility across the biofilm 5 images at random positions from each of two biological replicates were obtained at wavelengths of 488 nm and 568 nm for each channel. All images obtained were analysed using COMSTAT software. Microcolonies were defined as cluster of cells with >500 pixel counts.

[2] = system: P. gingivalis (ATCC 33277) biofilm; test: Viability of cells dispersed by Oxantel treatment, static 24 well biofilm assay, colony forming units; assay type: cell-based, Porphyromonas gingivalis; conditions: especially for the 12.5 μM Oxantel treated biofilm, 30 min
Procedure: To test the viability of cells dispersed by Oxantel treatment, a static biofilm assay was performed as described above but with slight modifications. Briefly P. gingivalis (ATCC 33277) was allowed to form biofilm in 24 well microplates after 18 h incubation. The free floating planktonic cells were first removed and the biofilm washed once with PBS. 1 mL of 125 uM or 12.5 uM of Oxantel or sterile water […] was added to each well and incubated for 30 min. The number of dispersed P. gingivalis cells that are still viable was determined by cultural analysis on horse blood agar plates after serial dilution in BHI.

[3] = system: P. gingivalis ATCC 33277 biofilm; test: Biofilm formation in static 96 well model, crystal violet stain; assay type: cell-based, Porphyromonas gingivalis
Procedure: P. gingivalis biofilm formation over 48 h in a static 96 well model was determined as described previously. Briefly P. gingivalis ATCC 33277 cells were resuspended to a final cell density of 2.5×10^7 before mixing with the test substances followed by transferring into 96 well flat bottom plates and incubated anaerobically at 37° C. Assessment of the biofilm mass was carried out at 24 h and 48 h by washing the cells twice with 250 μL of ultra pure water to remove loosely adhered cells followed by drying at 37° C. for 3 h. The dried biofilm was then stained in a solution of 0.1% crystal violet for 15 min and washed 2 times with 250 μL ultra pure water. The crystal violet stain was then dissolved from the biofilm using a solution of 80% ethanol and 20% acetone for 2 min through repeated pipetting before transferring to a new 96 well plate for measurement of the optical density at 620 nm.

P. gingivalis ATCC 33277 = test: Effect of Oxantel on growth of P. gingivalis ATCC 33277 in liquid culture over 50 h; assay type: cell-based; conditions: Porphyromonas gingivalis, ATCC33277; P. gingivalis ATCC 33277, growth over 50 h
[4] = Solubility limit seen in the growth assay; assay type: physicochemical; conditions: growth assay medium (P. gingivalis W50 liquid culture), 37 °C, kinetic from dmso stock, read-out: insolubility (concentration above which insoluble)
Procedure: as §1

[5] = Porphyromonas gingivalis, P. gingivalis W50, growth over 50 h, read-out: MIC
[6] = 12.5 μM Oxantel vs Control, Biological Replicate 1
[7] = 12.5 μM Oxantel, Biological Replicate 1
[8] = 12.5 μM Oxantel, Biological Replicate 2, first channel
[9] = 12.6 μM Oxantel (so in the source), Biological Replicate 2, second channel
[10] = 125 μM Oxantel vs Control, Biological Replicate 1
[11] = 125 μM Oxantel, Biological Replicate 1
[12] = Biological Replicate 2, based on average of both replicates over the control sample
[13] = mature biofilm treated with Oxantel (125 μM or 12.5 μM, 30 min) vs control, P<0.01

In the case of `Cc1ccsc1/C=C/C1=NCCCN1C` [Morantel], the MIC (P. gingivalis W50; P. gingivalis W50, growth over 50 h, read-out: MIC) is reported as 2800 µM (≈ 617 µg/mL) and the MIC (P. gingivalis W50; Porphyromonas gingivalis, W50, 50 h, P. gingivalis W50, growth over 50 h) is reported as ~3000 µM (≈ 661 µg/mL).

In the case of `CN1CCCN=C1/C=C/c1cccc(O)c1` [Oxantel], the “concentration with positive inhibition of growth” value (P. gingivalis W50; P. gingivalis W50, from the growth curves) is reported as “more than 15 μM”, the MIC (P. gingivalis W50; [5]) is reported as 112 µM (≈ 24.2 µg/mL) and the Total biomass ([1]; 12.5 μM Oxantel added to 16 h biofilm, Biological Replicate 1, COMSTAT, 3-channel flow cell) is reported as 1.26^a μm^3/μm^2. The “Average microcolony area % reduction” value [1, 6] was 37.2%, the “Average thickness % reduction” value [1, 6] was 39.7% and the “Total biomass % reduction” value [1, 6] was 30.1%. For the same molecule, the “Ave microcolonies (by pixel, minimum 500)” value (from here on “Ave microcolonies”) [1, 7] was 17.4, the Average microcolony area [1, 7] was 147.65^a μm^2 and the Average thickness [1, 7] was 0.70^a μm. For the same molecule, the “Surface to biovolume ratio” value [1, 7] was 2.04^a μm^2/μm^3, the “Ave microcolonies” value [1, 8] was 18.4 and the Average microcolony area [1, 8] was 119.571^a μm^2. For the same molecule, the Average thickness [1, 8] was 0.911^a μm, the “Surface to biovolume ratio” value [1, 8] was 2.331^a μm^2/μm^3 and the Total biomass [1, 8] was 1.451^a μm^3/μm^2. The “Ave microcolonies” value [1, 9] was 19.2, the Average microcolony area [1, 9] was 104.881^a μm^2 and the Average thickness [1, 9] was 0.891^a μm. The “Surface to biovolume ratio” value [1, 9] was 2.541^a μm^2/μm^3, the Total biomass [1, 9] was 1.621^a μm^3/μm^2 and the Total biomass ([1]; 125 μM Oxantel added to 16 h biofilm, Biological Replicate 1) was 1.00^a μm^3/μm^2. The “Average microcolony area % reduction” value [1, 10] was 50.94%, the “Average thickness % reduction” value [1, 10] was 63.2% and the “Total biomass % reduction” value [1, 10] was 44.4%. The “Ave microcolonies” value [1, 11] was 20.8, the Average microcolony area [1, 11] was 115.42^a μm^2 and the Average thickness [1, 11] was 0.43^a μm. The “Surface to biovolume ratio” value [1, 11] was 2.27^b μm^2/μm^3, the “Average microcolony area % reduction” value [1, 12] was 37.9% and the “Average thickness % reduction” value [1, 12] was 49.9%. For the same molecule, the “Total biomass % reduction” value [1, 12] was 42.8%, the number of microcolonies ([1]; Oxantel treated vs control samples) was “no significant difference” and the biofilm depth [1, 13] was “significant reduction”. For the same molecule, the size of microcolonies [1, 13] was “significant reduction”, the “viability of cells released from the biofilm” value [2] was “remained viable” and the “concentration that significantly reduced the biofilm mass at 24 h” value ([3]; ATCC 33277, 24 h biofilm, subMIC) was ≥ 0.1 µM. For the same molecule, the “concentration necessary for an inhibitory effect on the biofilm mass at 48 h” value ([3]; ATCC 33277, 48 h biofilm) was ≥ 3.9 µM and the MIC (P. gingivalis ATCC 33277) was 125 µM (≈ 27 µg/mL).

For `c1ccc2[nH]c(-c3cscn3)nc2c1` [Thiabendazole], the “concentration required for slight inhibitory effects on the growth” value (P. gingivalis W50; P. gingivalis W50, growth over 50 h) was “more than 1 mM”, the MIC (P. gingivalis W50; [5]) was > 3000 µM and the solubility [4] was > 3000 µM.
